Measured values as given in patent US6653478B2, “Substituted benzimidazol-2-ones as vasopressin receptor antagonists and neuropeptide Y modulators” (Ortho-McNeil Pharmaceutical, Inc., priority 2000, dated 2003).
Several values for one entry are separate records, joined by “and”; a condition that tells them apart may be missing. Equal entries are not always repeated. Structures can show the parent of a compound that is named as a salt.

Legend:
[1] = target: human V2 receptor (Homo sapiens, UniProt P30518); experiment: V2 binding assay (3H-AVP displacement, HEK-293 membranes); parameters: expressed in transfected cells; host or cells: HEK-293 (membranes); details: 1.0 μM compound; read-out: V2@1.0, % Inh
human V2 receptor, sequence (P30518 whole entry): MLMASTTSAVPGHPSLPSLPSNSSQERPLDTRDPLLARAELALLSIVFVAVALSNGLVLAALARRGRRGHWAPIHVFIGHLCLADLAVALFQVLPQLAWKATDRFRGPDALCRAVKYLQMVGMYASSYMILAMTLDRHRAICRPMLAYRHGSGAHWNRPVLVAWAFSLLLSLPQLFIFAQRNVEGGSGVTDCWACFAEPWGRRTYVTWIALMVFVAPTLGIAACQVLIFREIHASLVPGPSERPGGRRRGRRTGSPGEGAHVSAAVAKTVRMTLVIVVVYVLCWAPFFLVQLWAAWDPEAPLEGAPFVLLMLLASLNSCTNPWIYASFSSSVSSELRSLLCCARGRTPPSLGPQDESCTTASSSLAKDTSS
Protocol: (§1) V1a, V1b or V2 Binding Assay
(§2) Receptor binding studies were performed using recombinant human V1a, V1b or V2 receptors. Cellular membranes were harvested from HEK-293 cells transfected to express either the V1a, V1b or V2 receptors. Compounds were evaluated for their ability to displace ^3H-arginine vasopressin (^3H-AVP; specific activity 40-87 Ci/mmol; NEN Life Sciences, Boston, Mass.). Compounds were solubilized in dimethylsulfoxide (DMSO) and diluted to working concentration of 10% DMSO with assay buffer (50 mM Tris, 5 mM MgCl2, 0.1% BSA, pH 7.5). Assay buffer was supplemented with several protease inhibitors (1 mM Pefabloc, 5 μg/ml aprotinin/leupeptin/pepstatin A, 50 μg/ml bacitracin; Sigma Chemical, St. Louis, Mo.). Non-specific binding was determined using 1.25 μM arginine vasopressin (AVP; Peninsula Labs, Belmont, Calif.). Assay reagents and test compounds were added to 96-well round bottom polypropylene plates (145 μl buffer, 5 μl compound in 10% DMSO, 25 μl buffer containing 10,000 cpm tracer, 25 μl cell membrane). After incubation for 1 hour at room temperature, the well contents were aspirated across a Unifilter GF/C plate (Packard Instrument, Downers Grove, Ill.) which had been presoaked in 0.3% polyethyleneimine to prevent peptide sticking. The wells were washed repeatedly with cold saline containing 0.05% Tween 20. The plate was then dried and 25 μl Microscint-20 cocktail (Packard Instruments) added to each well. The plates were sealed and counted on a TopCount scintillation counter (Packard Instruments) using quench correction.

[2] = target: T1, NPY2 receptors (Homo sapiens, UniProt P49146); experiment: Neuropeptide Y receptor binding assay (125I-PYY, KAN-TS cell membranes); details: 10 μM compound; read-out: NPY-2@10, % Inh
T1 construct: Cell Membranes from KAN-TS cells having NPY2 receptors; endogenous in cells; host or cells: KAN-TS cells (membranes)
T1 sequence (P49146 1-381): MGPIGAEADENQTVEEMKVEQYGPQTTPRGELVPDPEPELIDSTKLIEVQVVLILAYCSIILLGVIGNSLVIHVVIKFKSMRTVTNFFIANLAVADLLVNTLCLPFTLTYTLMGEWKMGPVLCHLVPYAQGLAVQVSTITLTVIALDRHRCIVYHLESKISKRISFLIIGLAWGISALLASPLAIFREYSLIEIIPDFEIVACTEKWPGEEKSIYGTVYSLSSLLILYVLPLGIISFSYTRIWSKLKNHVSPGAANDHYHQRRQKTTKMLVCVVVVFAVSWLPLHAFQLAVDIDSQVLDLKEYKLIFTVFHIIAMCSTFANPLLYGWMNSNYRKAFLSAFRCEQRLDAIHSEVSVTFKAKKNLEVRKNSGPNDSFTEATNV
Protocol: Neuropeptide Y Receptor Binding Assay
Load 96-well RIA racks with RIA vials (Sarstedt, cat. #73.1055)
Prepare membranes—use 2×15 cm confluent plates/96-well assay plate
Add 14 mls Homogenization buffer/cell pellet
Homogenize at high speed for 15 seconds
Transfer to 15 ml conical tube and spin 5′ at 4° C. at setting 3 in RT6000 centrifuge
Transfer supernatant to 30 ml Corex tube
Balance and spin 25′ at 15,000 rpm at 4° C.
Resuspend pellet in 10 mls Binding buffer
Homogenize at high speed for 15 sec.
Bring volume up to 50 mls in Binding buffer (25 mls/2×96-well plates)
Keep on ice until use or freeze in aliquots (2 plates/tube) in −70° C.
Prepare ^125I-PYY (for 2×96-well compound plates)
Dilute 50 uCi ^125I-PYY in 1 ml H2O
Add 0.4 ml 10% BSA to 20 ml Binding buffer
Add 150 μl ^125I-PYY, mix well
NSB (1 μM PYY final conc.): 40 μl PYY (100 μM stock)+60 μl 30% DMSO in HEPES=40 μM PYY—add 5 μl/well
Total Binding: Add 5 μl/well of Compound Diluent
Add 5 μl compound (final conc. @10 μM)
Incubate at R.T. for 1 hr.
Spin plates for 10′ at setting 9 in RT6000 centrifuge
Aspirate supernatant from tubes, add 300 μl PBS and aspirate again.
After plates are washed and aspirated, put individual tubes in 12×75 mm polypropylene carrier tubes. Count on gamma counter.

[3] = target: T2, human V1b receptor (Homo sapiens, UniProt P47901); experiment: V1b binding assay (3H-AVP displacement, HEK-293 membranes); parameters: expressed in transfected cells; host or cells: HEK-293 (membranes); details: for inhibition at 10 µM: 10 μM compound, read-out: V1b % Inh @10; for inhibition at 1 µM: 1.0 μM compound, read-out: V1b@1.0, % Inh
T2 sequence (P47901 1-424): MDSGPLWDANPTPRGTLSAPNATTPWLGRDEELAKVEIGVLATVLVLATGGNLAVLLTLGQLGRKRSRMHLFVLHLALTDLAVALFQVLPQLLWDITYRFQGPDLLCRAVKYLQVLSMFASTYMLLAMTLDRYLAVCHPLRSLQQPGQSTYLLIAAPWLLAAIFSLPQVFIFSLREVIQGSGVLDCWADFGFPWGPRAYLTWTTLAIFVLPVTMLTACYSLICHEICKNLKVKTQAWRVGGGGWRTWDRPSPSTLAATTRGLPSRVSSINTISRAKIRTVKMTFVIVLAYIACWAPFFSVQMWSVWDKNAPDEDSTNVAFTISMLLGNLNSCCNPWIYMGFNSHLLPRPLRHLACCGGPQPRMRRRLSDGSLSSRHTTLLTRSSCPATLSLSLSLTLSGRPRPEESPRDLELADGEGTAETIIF
Protocol: as §1, §2

[4] = target: human V1a receptor (Homo sapiens, UniProt P37288); experiment: V1a binding assay (3H-AVP displacement, HEK-293 membranes); parameters: expressed in transfected cells; host or cells: HEK-293 (membranes); details: for inhibition at 1 µM: 1.0 μM compound, read-out: V1a@1.0, % Inh; for inhibition at 0.1 µM: 0.1 μM compound, read-out: V1a % Inh @0.1
human V1a receptor, sequence (P37288 whole entry): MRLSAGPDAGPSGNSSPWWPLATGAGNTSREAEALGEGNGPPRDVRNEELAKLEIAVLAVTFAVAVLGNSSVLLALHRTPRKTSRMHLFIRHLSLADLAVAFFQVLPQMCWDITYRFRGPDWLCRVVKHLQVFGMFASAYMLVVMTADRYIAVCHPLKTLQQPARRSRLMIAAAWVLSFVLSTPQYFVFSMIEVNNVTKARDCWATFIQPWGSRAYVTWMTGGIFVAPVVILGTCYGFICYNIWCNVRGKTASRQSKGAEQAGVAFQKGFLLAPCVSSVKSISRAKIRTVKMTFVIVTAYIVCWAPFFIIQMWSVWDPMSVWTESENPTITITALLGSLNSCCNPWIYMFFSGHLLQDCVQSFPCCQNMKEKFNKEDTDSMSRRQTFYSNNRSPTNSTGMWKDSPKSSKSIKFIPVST
Protocol: as §1, §2

| Structure (SMILES) | inhibition at 1 µM [1] [%] | inhibition at 10 µM [2] [%] | inhibition at 10 µM [3] [%] | inhibition at 1 µM [4] [%] | inhibition at 1 µM [3] [%] | IC50 [4] | IC50 [3] [nM] | inhibition at 0.1 µM [4] [%] |
| --- | --- | --- | --- | --- | --- | --- | --- | --- |
| O=c1[nH]c2ccccc2n1C1CCN(C(=S)NCCc2ccccc2)CC1 [Compound 22] | 4 | 11 | 0 | 45 |  |  |  |  |
| O=c1[nH]c2ccccc2n1C1CCN(C(=S)NC(Cc2ccccc2)c2ccccc2)CC1 (stereo not drawn) [Compound 32] | 9 | 26 | 4 | 42 |  |  |  |  |
| COc1ccccc1CNC(=S)N1CCC(n2c(=O)n(CCCN3CCCCC3)c3ccccc32)CC1 [Compound 111, 1-[(N1-piperidinocarbothioyl-2-methoxybenzylamino)-4-yl]-3-(3-N-piperidinylpropyl)-1,3-dihydrobenzimidazol-2-one] | 0 | 31 |  |  | 30 | 109 nM and 56 nM |  |  |
| O=C(NC(c1ccccc1)c1ccccc1)N1CCC(n2c(=O)[nH]c3ccccc32)CC1 [Compound 75] | 0 | 12 |  | 58 |  |  | 1000 |  |
| COc1ccc(C(NC(=S)N2CCC(n3c(=O)n(CCCN)c4ccccc43)CC2)c2ccc(OC)cc2)cc1 [Compound 68, 1-[(N1-Piperidinocarbothioyl-1,1-di(p-anisyl)methylamino)-4-yl]-3-(3-aminopropyl)-1,3-dihydrobenzimidazol-2-one Hydrochloride] | 0 | 11 | 66 |  |  |  | 4600 | 46 |
| COc1ccc(C(NC(=S)N2CCC(n3c(=O)[nH]c4ccccc43)CC2)c2ccc(OC)cc2)cc1 [Compound 66, 1-[(N1-Piperidinocarbothioyl-1,1-di(p-anisyl)methylamino)-4-yl]-1,3-dihydrobenzimidazol-2-one] | 0 | 21 | 11 |  |  |  |  | 15 |
| O=C(O)C(Cc1ccccc1)NC(=S)N1CCC(n2c(=O)[nH]c3ccccc32)CC1 (stereo not drawn) [Compound 41] | 0 | 11 |  | 8 |  |  |  |  |
| COC(=O)[C@@H](Cc1c[nH]c2ccccc12)NC(=S)N1CCC(n2c(=O)[nH]c3ccccc32)CC1 [Compound 50] | 0 | 16 | 15 | 8 |  |  |  |  |
| COc1cccc(CNC(=S)N2CCC(n3c(=O)[nH]c4ccccc43)CC2)c1OC [Compound 18] | 9 | 10 | 3 | 22 |  |  |  |  |
| CC(NC(=S)N1CCC(n2c(=O)[nH]c3ccccc32)CC1)c1ccc(F)cc1 (stereo not drawn) [Compound 27] | 20 | 15 | 0 | 33 |  |  |  |  |
| CN1CCN(C(=O)C(Cc2ccccc2)NC(=S)N2CCC(n3c(=O)[nH]c4ccccc43)CC2)CC1 (stereo not drawn) [Compound 45] | 9 | 15 |  | 54 |  |  |  |  |
| COC(=O)C(Cc1ccccc1)NC(=S)N1CCC(n2c(=O)n(CCCNC(=O)OCc3ccccc3)c3ccccc32)CC1 (stereo not drawn) [Compound 52] |  | 11 | 13 |  |  | 580 nM |  |  |
| CCc1ccc(CCNC(=S)N2CCC(n3c(=O)[nH]c4ccccc43)CC2)cc1 [Compound 21] | 19 | 13 |  | 31 |  |  |  |  |

The remaining lines, values ahead:

| inhibition at 1 µM [1] [%] | inhibition at 10 µM [2] [%] | inhibition at 10 µM [3] [%] | inhibition at 1 µM [4] [%] | inhibition at 1 µM [3] [%] | IC50 [4] | IC50 [3] [nM] | inhibition at 0.1 µM [4] [%] | Structure (SMILES) |
| --- | --- | --- | --- | --- | --- | --- | --- | --- |
| 0 | 20 |  |  | 43 | 79 nM |  |  | O=C(NC(c1ccccc1)c1ccccc1)N1CCC(n2c(=O)n(CCCN3CCCC3)c3ccccc32)CC1 [Compound 96, 1-[(N1-piperidinocarbonyldiphenylmethylamino)-4-yl]-3-(3-N-pyrrolidinylpropyl)-1,3-dihydrobenzimidazol-2-one] |
| 42 | 69 |  |  |  | 270 nM |  |  | O=c1n(CCN2CCOCC2)c2ccccc2n1C1CCN(C(=S)NC(c2ccccc2)c2ccccc2)CC1 [Compound 19, 1-[(N1-Piperidinocarbothioyldiphenylmethylamino)-4-yl]-3-(2-N-morpholinoethyl)-1,3-dihydro-benzimidazol-2-one] |
| 8 | 81 |  |  |  | 20 nM | 230 |  | CCN(CC)CCCn1c(=O)n(C2CCN(C(=S)NC(c3ccccc3)c3ccccc3)CC2)c2ccccc21 [Compound 85, 1-[(N1-piperidinocarbothioylbiphenylmethylamino)-4-yl]-3-(3-N,N-diethylaminopropyl)-1,3-dihydrobenzimidazol-2-one] |
| 0 | 21 |  |  | 43 | 14 nM |  |  | CC1CC(C)CN(CCCn2c(=O)n(C3CCN(C(=O)NC(c4ccccc4)c4ccccc4)CC3)c3ccccc32)C1 (stereo not drawn) [Compound 101] |
| 2 | 79 |  |  | 47 | 44 nM |  |  | CCOC(=O)C1CCN(CCCn2c(=O)n(C3CCN(C(=S)NC(c4ccccc4)c4ccccc4)CC3)c3ccccc32)CC1 [Compound 83, 1-[(N1-piperidinocarbothioylbiphenylmethylamino)-4-yl]-3-[3-(4-ethylcarboxypiperidine)propyl]-1,3-dihydrobenzimidazol-2-one] |
| 16 | 29 |  |  | 46 | 126 nM |  |  | CC1CCN(CCCn2c(=O)n(C3CCN(C(=O)NC(c4ccccc4)c4ccccc4)CC3)c3ccccc32)CC1 [Compound 99, 1-[(N1-piperidinocarbonylbiphenylmethylamino)-4-yl]-3-(4-methylpiperidin-1-yl-propyl)-1,3-dihydrobenzimidazol-2-one] |
| 51 | 34 |  |  |  | 380 nM |  |  | Cn1c(=O)n(C2CCN(C(=S)NC(c3ccccc3)c3ccccc3)CC2)c2ccccc21 [Compound 10, 3-Methyl-1-[(N1-Piperidinocarbothioyldiphenylmethylamino)-4-yl]-1,3-dihydro-benzimidazol-2-one] |
